# Data taken from patent US20260174745A1, “COMPOSITIONS AND METHODS FOR TREATING NF1 AND OTHER CONDITIONS” (priority 2022, published 2026).
# Assays:
# [1] = tested on: mammary tumors; details: previously shown; cited from earlier work
# [2] = tested on: LL2 cells; assay: LL2 subcutaneous tumor dose ranging study; type: in vivo, C57/BL6 mice; details: bexarotene 30 mg/kg
# [3] = Triglyceride levels in LL2 dose ranging study; details: bexarotene 30 mg/kg; plasma
# Protocol: In this study, 7-8 week old male C57/BL6 mice were injected with 1×10^6 LL2 cells subcutaneously into the left flank. Tumors were measured with calipers twice per week (Monday and Thursday) and mice were weighed once per week (Monday). […] When tumors reached endpoint (20×20 mm or ulceration), mice were euthanized and tumors fixed in formalin. Blood was collected for plasma. Stats: two-way ANOVA w/Tukey HSD.
# [4] = tested on: Kras-driven lung tumors; assay: Established Kras-driven lung tumors in A/J mice (vinyl carbamate initiation); type: in vivo
# Protocol: FIG. 2 is photographs of mouse lungs and mouse lung tissue section stains collected […] of Kras mutations with vinyl carbamate. A/J mice were fed control diet or RXR agonists (100 mg/kg diet or 25 mg/kg body weight) for 12 weeks. Lungs were harvested and photographed (A) and then sectioned and stained with hematoxylin and eosin (“H & E”) to evaluate tumor grade (B) as defined in collaboration with a human lung cancer pathologist. […] Compound 1 has the structure: FIG. 3 is a plot of tumor burden and photographs of mouse lung tissue section stains. Eight weeks after initiation of Kras mutations, A/J mice were fed control diet or compound 1 (25 mg/kg) for 12 weeks. Lungs were sectioned and stained with H & E or by immunohistochemistry (“IHC”) to evaluate tumor burden or biomarkers, respectively. […] FIG. 4 is plots showing data collected from lung tumors induced in A/J mice as described in FIG. 3. After 12 weeks of treatment with compound 1 (25 mg/kg) or control diet, lungs were harvested. Immune cell populations in the lungs were analyzed by flow cytometry using an optimized multi-colored panel of antibodies.
# [5] = tested on: mammary tumors; assay: MMTV-neu mice with established mammary tumors; type: in vivo; details: for T cell / immune cell populations in mammary tumors: flow cytometry and IHC
# Protocol: FIG. 5 is plots and stains obtained from MMTV-neu mice with established mammary tumors, which were treated with compound 1 for 10 days. Tumor size (A) was evaluated by calipers, immune cell populations by flow cytometry (B) and IHC (C). n=8 mice/group in A-C and n=4/group for quantification (D) of PCNA and p-ERK optical density. The data in FIG. 5 compound 1 reduces tumor burden and p-ERK and alters T cell populations in mammary tumors.
# [6] = tested on: NF1-ipNF 95.6 neurofibroma cells; assay: p-ERK expression by western blotting in neurofibroma cells; type: cell-based, human; details: 3 hours; for reduction of p-ERK expression: 50 nM selumetinib, 200 nM compound 1 or combination
# Protocol: (§1) FIGS. 6A and 6B are a […] and a plot, respectively, generated from experiments on NF1-ipNF 95.6 neurofibroma cells treated with 50 nM selumetinib (Sel), 5 nM trametinib (Tra, an alternative MEK inhibitor used as a control), 200 nM compound 1, or the combination for 3 hours. Protein expression was evaluated by western blotting and LiCOR imaging (A). In B, cells were treated with 200 nM MSU42011, 100 nM Sel or the combination for 72 hrs, and cell viability measured using an MTT assay. *, P<0.05 vs. other groups.
# [7] = tested on: NF1-ipNF 95.6 neurofibroma cells; assay: MTT cell viability in neurofibroma cells; type: cell-based, human; details: 200 nM MSU42011, 100 nM selumetinib or combination, 72 hrs
# Protocol: as §1
# [8] = tested on: THP1 macrophages; assay: CCL2 mRNA (qPCR) in THP1 macrophages stimulated with conditioned medium from ipNF95.6 cells; type: cell-based, human; details: 50 nM selumetinib, 200 nM compound 1 or combination, 24 hrs, PMA + CM
# Protocol: FIG. 8 is a plot showing results of experiments involving THP1 human monocytes that were differentiated into macrophages with 50 ng/ml PMA for 3 days, followed by treatment with conditioned medium (CM) from ipNF95.6 neurofibroma cells and drugs (50 nM selumetinib (Sel), 200 nM compound 1, or the combination) for an additional 24 hrs. CCL2 expression was evaluated by qPCR and normalized to the DMSO control without treatment with PMA+CM (not shown). Data represent means±standard deviations of two independent experiments, p<0.05 vs. DMSO control.
# FIG. 10A is a plot showing the results where THP1 monocytes were differentiated into macrophages with 50 ng/ml PMA for 3 days, followed by treatment with CM from human PNF cells (ipNF95.6) and drugs (50 nM selumetinib, 200 nM compound 1, or the combination) for an additional 24 hrs.
# Combination treatment with compound 1 and selumetinib decreased CCL2 mRNA expression in THP1 cells and BMDM stimulated with conditioned media (CM) from human and mouse PNF cells. […] CCL2 mRNA expression was evaluated by qPCR and normalized to the DMSO control without CM treatment (not shown). Data represent means±standard deviations. * p<0.05, ** p<0.01 compared with vehicle treatment.
# [9] = tested on: RXR; assay: RXR activation; details: read-out: EC50 in activating RXR
# [10] = Triglyceride elevation in vivo
# [11] = flow cytometry of lungs, p<0.05
structure (smiles),measurement,setting,value
Cc1cc2c(cc1C1(c3ccc(C(=O)O)cn3)CC1)C(C)(C)CCC2(C)C [LG100268],"CD206+ tumor-promoting macrophages, MDSCs and Foxp3+ Tregs in tumors",[1],decreased
same,number of activated cytotoxic CD8 T cells in tumors,[1],increased
C=C(c1ccc(C(=O)O)cc1)c1cc2c(cc1C)C(C)(C)CCC2(C)C [bexarotene],activity against the tumors,[2],not active against the tumors
same,"CD206+ tumor-promoting macrophages, MDSCs and Foxp3+ Tregs in tumors",[1],not observed
same,number of activated cytotoxic CD8 T cells in tumors,[1],not observed
same,triglyceride levels,[3],raises triglycerides
"CC(C)N(c1cc(C(C)(C)C)cc(C(C)(C)C)c1)c1ccc(C(=O)O)cn1 [compound 1, 6-[(3,5-di-tert-butylphenyl) (propan-2-yl)amino]pyridine-3-carboxylic acid]",lung tumor burden,"[4]; 25 mg/kg in diet, 12 weeks",significantly (p=0.0015) reduced
same,tumor-promoting CD206+ macrophages within lung tumors,[4]; IHC,reduced
same,p-ERK levels within lung tumors,"[4]; IHC, p=0.03",reduced
same,"activated cytotoxic T cells (ratio of CD8+/CD4+, CD25+)",[4]; [11],increased
same,immunosuppressive CD4+CD25+ Tregs,[4]; [11],decreased
same,tumors that were high grade,"[4]; histopathology, control group 77%, p<0.05",62%
same,average tumor burden lower compared to the control and bexarotene groups,"[4]; lungs of A/J mice, 100 mg/kg diet (25 mg/kg body weight), 12 weeks, p=0.015",60%
same,"number, size and histopathology of lung tumors",[4]; vs untreated controls and bexarotene-treated mice,significantly (p<0.05) decreased
same,T cell / immune cell populations in mammary tumors,[5],alters
same,T cell / immune cell populations in mammary tumors,[5]; listed as Compound 1,alters the same immune cells in this model as LG100268
same,p-ERK in mammary tumors,"[5]; treated 10 days, IHC optical density",reduces
same,tumor burden in mammary tumors,"[5]; treated 10 days, calipers",reduces
same,reduction of p-ERK expression,[6],approximately 70%
same,expression of p-ERK,"[6]; 200 nM compound 1, 50 nM selumetinib",decreases
same,cell viability,[7],reduces viability
same,decrease of CCL2 mRNA expression,[8],23%
same,EC50,[9],30 nM
same,elevation of triglycerides in vivo,[10],does not elevate triglycerides
"Cn1cnc2c(F)c(Nc3ccc(Br)cc3Cl)c(C(=O)NOCCO)cc21 [selumetinib, reference compound]",reduction of p-ERK expression,[6],~40%
